Results taken from PubChem BioAssay AID248 (DTP/NCI, 2004).
“And” between values parts separate entries of the source, which are not always exact repeats. Equal values may be shown once. Toxic doses and inconclusive results are not listed.

System: L1210 leukemia ip in BDF1 mice, survival T/C
Assay: NCI In Vivo Anticancer Drug Screen. Data for tumor model L1210 Leukemia (intraperitoneal) in B6D2F1 (BDF1) mice
Conditions: endpoint: mean survival time, higher = longer survival
In short: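 Mice bearing the transplanted tumor received compound or vehicle. Survival of the treated group was divided by that of the vehicle-treated control group to give the ratio.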

[1] = dose: 100.0 mg/kg/injection, schedule: Q01DX009 (ip), vehicle: saline
[2] = dose: 100.0 mg/kg/injection, schedule: Q04DX003 (ip), vehicle: saline
[3] = dose: 200.0 mg/kg/injection, schedule: Q01DX009 (ip), vehicle: saline
[4] = dose: 200.0 mg/kg/injection, schedule: Q04DX003 (ip), vehicle: saline
[5] = dose: 400.0 mg/kg/injection, schedule: Q04DX003 (ip), vehicle: saline
[6] = dose: 100.0 mg/kg/injection, schedule: Q01DX001 (ip), vehicle: saline with Tween-80
[7] = dose: 100.0 mg/kg/injection, schedule: Q01DX009 (ip), vehicle: saline with Tween-80
[8] = dose: 100.0 mg/kg/injection, schedule: Q04DX002 (ip), vehicle: saline with Tween-80
[9] = dose: 200.0 mg/kg/injection, schedule: Q01DX001 (ip), vehicle: saline with Tween-80
[10] = dose: 200.0 mg/kg/injection, schedule: Q01DX009 (ip), vehicle: saline with Tween-80
[11] = dose: 400.0 mg/kg/injection, schedule: Q01DX001 (ip), vehicle: saline with Tween-80
[12] = dose: 400.0 mg/kg/injection, schedule: Q01DX009 (ip), vehicle: saline with Tween-80
[13] = dose: 400.0 mg/kg/injection, schedule: Q01DX009 (ip), vehicle: saline
[14] = dose: 100.0 mg/kg/injection, schedule: Q04DX003 (ip), vehicle: Klucel (hydroxypropylcellulose) (HPC)
[15] = dose: 200.0 mg/kg/injection, schedule: Q04DX003 (ip), vehicle: Klucel (hydroxypropylcellulose) (HPC)
[16] = dose: 400.0 mg/kg/injection, schedule: Q04DX003 (ip), vehicle: Klucel (hydroxypropylcellulose) (HPC)
[17] = dose: 100.0 mg/kg/injection, schedule: Q04DX003 (ip), vehicle: acetone
[18] = dose: 200.0 mg/kg/injection, schedule: Q04DX003 (ip), vehicle: acetone
[19] = dose: 400.0 mg/kg/injection, schedule: Q04DX003 (ip), vehicle: acetone
[20] = dose: 100.0 mg/kg/injection, schedule: Q01DX005 (ip), vehicle: saline
[21] = dose: 200.0 mg/kg/injection, schedule: Q01DX005 (ip), vehicle: saline
[22] = dose: 100.0 mg/kg/injection, schedule: Q01DX001 (ip), vehicle: saline
[23] = dose: 200.0 mg/kg/injection, schedule: Q01DX001 (ip), vehicle: saline
[24] = dose: 400.0 mg/kg/injection, schedule: Q01DX001 (ip), vehicle: saline
[25] = dose: 100.0 mg/kg/injection, schedule: Q04DX003 (ip), vehicle: saline with Tween-80
[26] = dose: 200.0 mg/kg/injection, schedule: Q04DX003 (ip), vehicle: saline with Tween-80
[27] = dose: 400.0 mg/kg/injection, schedule: Q04DX003 (ip), vehicle: saline with Tween-80

C/C=C/C(=O)OC1CC2OC3C=C(C)C4OC4C3(C)C1(C)C21CO1 (configuration not stated)
T/C (dose: 50.0 mg/kg/injection, schedule: Q01DX009 (ip), vehicle: saline): 96 % of control | T/C [1]: 96 % of control | T/C [2]: 90 % of control | T/C [3]: 108 % of control | T/C [4]: 92 % of control | T/C [5]: 88 % of control

CCCC(=O)Nc1cc(C)ccc1OC
T/C [6]: 94 % of control | T/C [7]: 101 % of control and 90 % of control | T/C [8]: 103 % of control and 92 % of control | T/C [9]: 98 % of control | T/C [10]: 101 % of control and 106 % of control | T/C (dose: 200.0 mg/kg/injection, schedule: Q04DX002 (ip), vehicle: saline with Tween-80): 97 % of control and 92 % of control | T/C [11]: 94 % of control | T/C [12]: 97 % of control and 87 % of control | T/C (dose: 400.0 mg/kg/injection, schedule: Q04DX002 (ip), vehicle: saline with Tween-80): 95 % of control and 98 % of control

CCCCCCCCCCCCCNCCCCCCCCCCCCC
T/C [2]: 96 % of control | T/C [4]: 92 % of control | T/C [5]: 96 % of control

NC(=O)CC(O)C(N)=O (configuration not stated)
T/C [1]: 94 % of control | T/C [2]: 104 % of control | T/C [3]: 95 % of control | T/C [4]: 106 % of control | T/C [13]: 99 % of control | T/C [5]: 96 % of control

COC1c2ccccc2C=CN1c1ccc([N+](=O)[O-])cc1[N+](=O)[O-] (configuration not stated)
T/C [14]: 110 % of control | T/C [15]: 104 % of control | T/C [16]: 108 % of control

ClC12CC3CC(CC(C3)C1)C2
T/C (dose: 100.0 mg/kg/injection, schedule: Q01DX009 (ip), vehicle: acetone): 92 % of control | T/C [17]: 91 % of control | T/C (dose: 200.0 mg/kg/injection, schedule: Q01DX009 (ip), vehicle: acetone): 95 % of control and 91 % of control | T/C [18]: 98 % of control | T/C (dose: 400.0 mg/kg/injection, schedule: Q01DX009 (ip), vehicle: acetone): 93 % of control | T/C [19]: 88 % of control

CC(c1ccccc1)C(O)c1ccccc1 (configuration not stated)
T/C [6]: 97 % of control | T/C [9]: 91 % of control | T/C [11]: 91 % of control

OCC1OC(n2cnc3c2ncn2ccnc32)C(O)C1O (configuration not stated)
T/C (dose: 6.25 mg/kg/injection, schedule: Q03HX024 (ip), vehicle: saline): 98 % of control | T/C (dose: 12.5 mg/kg/injection, schedule: Q03HX024 (ip), vehicle: saline): 93 % of control | T/C (dose: 12.5 mg/kg/injection, schedule: Q04DX002 (ip), vehicle: saline): 93 % of control | T/C (dose: 25.0 mg/kg/injection, schedule: Q03HX024 (ip), vehicle: saline): 95 % of control | T/C (dose: 25.0 mg/kg/injection, schedule: Q04DX002 (ip), vehicle: saline): 97 % of control | T/C (dose: 50.0 mg/kg/injection, schedule: Q03HX024 (ip), vehicle: saline): 92 % of control | T/C (dose: 50.0 mg/kg/injection, schedule: Q04DX002 (ip), vehicle: saline): 179 % of control | T/C [20]: 101 % of control | T/C [1]: 107 % of control | T/C (dose: 100.0 mg/kg/injection, schedule: Q03HX024 (ip), vehicle: saline): 87 % of control | T/C [21]: 107 % of control | T/C [3]: 89 % of control | T/C (dose: 200.0 mg/kg/injection, schedule: Q03HX024 (ip), vehicle: saline): 88 % of control | T/C [13]: 104 % of control

CCCCOc1ccccc1NC(=O)CCl
T/C [2]: 100 % of control | T/C [4]: 100 % of control | T/C [5]: 93 % of control

C/C=N\N=C(N)N
T/C (dose: 15.0 mg/kg/injection, schedule: Q01DX Z (ip), vehicle: saline): 91 % of control | T/C (dose: 30.0 mg/kg/injection, schedule: Q01DX Z (ip), vehicle: saline): 97 % of control | T/C (dose: 60.0 mg/kg/injection, schedule: Q01DX Z (ip), vehicle: saline): 100 % of control | T/C (dose: 120.0 mg/kg/injection, schedule: Q01DX Z (ip), vehicle: saline): 94 % of control | T/C (dose: 120.0 mg/kg/injection, schedule: Q01DX Z (oral), vehicle: other): 95 % of control | T/C (dose: 240.0 mg/kg/injection, schedule: Q01DX Z (oral), vehicle: other): 97 % of control | T/C (dose: 480.0 mg/kg/injection, schedule: Q01DX Z (oral), vehicle: other): 102 % of control | T/C (dose: 960.0 mg/kg/injection, schedule: Q01DX Z (oral), vehicle: other): 122 % of control

CC(C)(CO)C(=O)O
T/C [22]: 101 % of control | T/C [23]: 98 % of control | T/C [24]: 106 % of control

CC(=O)OC(c1ccccc1)C(C)C(OC(C)=O)(C(F)(F)F)C(F)(F)F (configuration not stated)
T/C [7]: 102 % of control | T/C [25]: 102 % of control | T/C [10]: 98 % of control | T/C [26]: 94 % of control | T/C [12]: 100 % of control | T/C [27]: 93 % of control

N/C(=N\O)c1ncn(C2OC(CO)C(O)C2O)c1N (configuration not stated)
T/C [20]: 103 % of control | T/C [21]: 108 % of control

COc1ccc(CN2CC(C)N(N)C(C)C2)cc1 (configuration not stated)
T/C [20]: 98 % of control

Fc1c(F)c(F)c(Oc2c(F)c(F)c(Br)c(F)c2F)c(F)c1F
T/C [6]: 88 % of control | T/C [9]: 88 % of control | T/C [11]: 88 % of control

CCCCCCCCCCCCCCCCCC(=O)NCCS
T/C (dose: 25.0 mg/kg/injection, schedule: Q04DX002 (ip), vehicle: saline with Tween-80): 101 % of control | T/C (dose: 50.0 mg/kg/injection, schedule: Q04DX002 (ip), vehicle: saline with Tween-80): 89 % of control | T/C [8]: 104 % of control

c1ccc(-c2cc(-c3ccccc3)c(-c3ccccc3)c(-c3ccccc3)c2)cc1
T/C (dose: 50.0 mg/kg/injection, schedule: Q01DX001 (ip), vehicle: saline): 100 % of control | T/C [22]: 100 % of control | T/C [23]: 100 % of control | T/C [24]: 100 % of control

Cc1nc(N)[nH]c(=O)c1N
T/C (dose: 75.0 mg/kg/injection, schedule: Q01DX001 (ip), vehicle: saline with Tween-80): 106 % of control | T/C [14]: 100 % of control | T/C (dose: 150.0 mg/kg/injection, schedule: Q01DX001 (ip), vehicle: saline with Tween-80): 101 % of control | T/C [15]: 96 % of control | T/C (dose: 300.0 mg/kg/injection, schedule: Q01DX001 (ip), vehicle: saline with Tween-80): 103 % of control | T/C [16]: 92 % of control

CC12c3ccccc3C(C)(c3c1ccc1ccccc31)C1C(=O)OC(=O)C12 (configuration not stated)
T/C (dose: 25.6 mg/kg/injection, schedule: Q04DX002 (ip), vehicle: Klucel (hydroxypropylcellulose) (HPC)): 88 % of control | T/C (dose: 64.0 mg/kg/injection, schedule: Q04DX002 (ip), vehicle: Klucel (hydroxypropylcellulose) (HPC)): 92 % of control | T/C (dose: 160.0 mg/kg/injection, schedule: Q04DX002 (ip), vehicle: Klucel (hydroxypropylcellulose) (HPC)): 88 % of control | T/C (dose: 400.0 mg/kg/injection, schedule: Q04DX002 (ip), vehicle: Klucel (hydroxypropylcellulose) (HPC)): 98 % of control

c1ccc2c(c1)cc1ncc3cccc4ccc2c1c43
T/C [25]: 88 % of control | T/C [26]: 102 % of control | T/C [27]: 88 % of control

CCC(C(N)=O)C1=CCCCC1 (configuration not stated)
T/C [7]: 95 % of control | T/C [10]: 93 % of control | T/C [12]: 98 % of control

CNC(=O)NC1ON=C(c2ccccc2)C1C(=O)NC (configuration not stated)
T/C [6]: 98 % of control | T/C [9]: 95 % of control

O=C(O)C1(C(=O)O)CC2CC=CCC2C1 (configuration not stated)
T/C (dose: 100.0 mg/kg/injection, schedule: Q01DX001 (ip), vehicle: acetone): 97 % of control | T/C [17]: 100 % of control | T/C (dose: 200.0 mg/kg/injection, schedule: Q01DX001 (ip), vehicle: acetone): 101 % of control | T/C [18]: 104 % of control | T/C (dose: 400.0 mg/kg/injection, schedule: Q01DX001 (ip), vehicle: acetone): 95 % of control | T/C [19]: 98 % of control
